Data as given in patent US20200208112A1, “Method of Selecting Genetically Modified Hematopoietic Stem Cells” (priority 2017, published 2020).

Columns and labels:
[1] = tested on: transduced human hCD45+ cells; experiment: Conditional suicide in vivo: ganciclovir treatment of NSG mice carrying transduced human cells; conditions: treated group, 50 mg/kg 6 days per week for 2 weeks, two months later
Description: (§1) a.b.c.d. Human cord blood CD34^+ cells were transduced with LTGCPU7 and treated with puromycin and cyclosporine A for 24 hours. Non-transduced (NT) and LTGCPU7-transduced cells were then treated with ganciclovir (GCV) for three days, counted (a) and plated on semi-solid medium for the evaluation of erythroid progenitor cell eradication (b). Selected cells were also injected into 16 NSG mice, half of which were treated with GCV four weeks later (50 mg/kg, 6 days per week, for 2 weeks). Human chimerism (c) and VCN in human CD45^+ cells (d) were determined 2 months later.
(§2) CB CD34+ cells were transduced with LTGCPU7, they were treated with ganciclovir for 72 hours, and plated on methylcellulose. The toxicity of ganciclovir was limited in non-transduced cells (FIG. 8a and FIG. 8b) and the number of transduced erythroid progenitors decreased by a factor of 200 and 1000 in the presence of 1 μM and 5 μM ganciclovir respectively (FIG. 8b). The transduced cells were injected into 16 NSG mice. Four weeks later, eight of the mice received ganciclovir. […] The absence of hCD45+ cells in mice with levels below the limit of sensitivity (<0.01%) was confirmed by the lack of enrichment observed on hCD45 cell sorting.

NIH3T3 cells = experiment: Puromycin selection and ganciclovir sensitivity of LTGCPU7-transduced NIH3T3 cells; type: cell-based
Description: a. NIH3T3 cells were mock-transduced (NT) or transduced with LTGCPU7, and LTGCPU7-transduced cells were selected with puromycin. Equivalent numbers of mock- and LTGCPU7-transduced/selected cells were treated with GCV at the indicated concentration. Living cells were counted three days later.
(§3) (Beckman Coulter). Where indicated, purification was performed with a Mustang Q anion exchange membrane cartridge (Pall Corporation), as previously described (Kutner et al., Nature protocols, 2009, 4, 495-505) and a 40K ZebaSpin desalting column (ThermoFisher Scientific), according to the manufacturer's instructions, with concentration by ultracentrifugation. Infectious titers were determined by qPCR, as previously described (Payen, E. et al., Methods in enzymology, 2012, 507, 109-124). When indicated, transduced NIH3T3 cells were selected on puromycin and treated with various concentrations of ganciclovir (Cymevan, Roche). Adult and cord blood CD34^+ cells were cultured in SCGM (CellGenix) and X-VIVO 20 (Lonza) medium, respectively, and transduced as previously described (Negre, O. et al., Current gene therapy, 2015, 15, 64-81). Cells were selected 48 hours after transduction, on puromycin hydrochloride (5 μg/mL, Sigma-Aldrich).

CB CD34+ cells = experiment: Conditional suicide in vitro: ganciclovir treatment of CB CD34+ cells, erythroid progenitor assay; type: cell-based, human
Description: as §1, §2

cord blood CD34+ cells = experiment: Selection of LTGCPU7-transduced cord blood CD34+ cells, progenitor assay on methylcellulose; type: cell-based, human
Description: as §3
(§4) Vector copy numbers were determined by the comparative Ct method and set at integer values. Colony-forming cells with VCN values between 0.5 and 1.5 were considered to have a VCN of 1; those with VCN values between 1.5 and 2.5 were considered to have a VCN of 2, and so on. LTC-IC cells were analyzed as previously described (Payen, E. et al., Methods in enzymology, 2012, 507, 109-124). The percentage of vector-modified LTC-IC during the readout phase of the assay was determined, by subjecting no more than one clonogenic myeloid colony per well to qPCR-based scoring to ensure that only independent LTC-ICs were analyzed.

[2] = tested on: SCID-repopulating cells (SRC); experiment: Transplantation of transduced and selected cord blood CD34+ cells into NSG mice (SRC selection); conditions: puromycin alone, three months after transplantation
Description: NOD.Cg-Prkdc^scid Il2rg^tmlWjl/SzJ (NOD-scid IL2rgamma^null abbreviated to NSG) mice were obtained from Charles River Laboratories (Saint Germain sur l'Arbresle, France) and kept in individually ventilated cages supplied with sterile food and autoclaved water. […] Experimental protocols were approved by the ethics committee for animal experimentation of the CEA, under notification number 12-033. Three- to four-month-old female recipients (at least 6 mice per group) were sublethally irradiated with a dose of 2.8 Gy (1 Gy/min) to the whole body (TBI). Then, 10^4 to 10^5 transduced and selected human cells were injected intravenously into the mice on the day after irradiation. […]
For progenitor assays performed immediately after in vitro transduction and selection, 500 to 1000 cells were plated in methylcellulose based-medium already supplemented with human cytokines (H4434, Stemcell Technologies). […] The colonies were counted and collected after incubation for 11-14 days, washed with PBS and stored. […]
Non-viable cells were excluded by Sytox Blue nucleic acid staining (ThermoFisher Scientific) or with 7AAD (eBioscience). Data were acquired with MACSQUANT instrument (Miltenyi) and analyzed with FlowJo software (Tree Star, Inc). […]

[3] = tested on: bone marrow (BM) CD34+ cells; experiment: Puromycin selection of LTGCPU1-transduced bone marrow CD34+ cells (progenitor and LTC-IC assays); type: cell-based, human; conditions: 10 μg/mL puromycin for 24 hours, 24 or 48 hours after transduction
Description: as §3
as §4, with “Colony-forming cells with VCN values between 0.5 and 1.5 were considered to have a VCN of 1; those with VCN values between 1.5 and 2.5 were considered to have a VCN of 2, and so on.” left out, “analyzed. […]” for “analyzed.”

[4] = tested on: mobilized peripheral blood (mPB) CD34+ cells; experiment: Puromycin selection of transduced mobilized peripheral blood CD34+ cells (mean VCN, progenitor assay); type: cell-based, human
Description: as §3, §4
The LTGCPU1 vector expressing the puromycin N-acetyl-transferase (PAC) gene under the human PGK promoter is derived from a β-globin LV that has been tested in an approved human trial for the gene therapy of the beta-hemoglobinopathies (Cavazzana Calvo et al., Nature, 2010; 467, 318-322; FIG. 1). LTGCPU1 transduced bone marrow (BM) CD34^+ cells were transferred onto selective medium containing 10 μg/mL puromycin at 24 or 48 hours after transduction. They were incubated for 24 hours, and the frequency of functional hematopoietic progenitor cell subsets was evaluated. The absolute numbers of vector-bearing erythroid progenitors (BFU-Es) were similar in the presence and absence of treatment, regardless of the time allowed for PAC gene expression. However, incubation for two days was required for the myeloid (CFU-GMs) and long-term progenitor cells (LTC-ICs) to acquire full resistance to the antibiotic (FIG. 2a). Mobilized peripheral blood (mPB) CD34^+ cells were also transduced with LTGCPU1 and treated with puromycin. The mean vector copy number (VCN) per cell was determined for pooled cells and compared with the theoretical VCN obtained in optimal conditions (eradication of all non-transduced cells and survival of all vector-bearing cells). In non-selective conditions, the mean VCN was 0.17. Based on the assumption that vector integration obeys Poisson statistics (see below), optimal selection should give rise to 1.08 copies of the vector per cell. Mean VCN was 1.6 when cells were selected 24 hours after transduction, and close to the expected value (1.08) if puromycin treatment began two or three days after transduction (FIG. 2b). […] With this optimized protocol, the proportion of vector-bearing progenitors (myeloid and erythroid) increased from 10-20% to more than 90% following treatment with 5 μg/mL puromycin (FIG. 2c).

| Compound | mice in which hCD45+ cells were detected [1] | sensitivity of LTGCPU7-transduced, puromycin-selected cells to ganciclovir (NIH3T3 cells) | toxicity in non-transduced cells (CB CD34+ cells) | factor of decrease of the number of transduced erythroid progenitors (CB CD34+ cells; 5 μM ganciclovir, 72 hours) | selection of LTGCPU7-transduced cord blood progenitors (cord blood CD34+ cells; 5 μg/mL puromycin for 24 hours) | mean VCN in erythroid progenitors, pooled cells from methylcellulose (cord blood CD34+ cells; 5 μg/mL puromycin, absence of MDR1 inhibitors) | mean VCN and percentage of vector-bearing cells in erythroid progenitors versus untreated (cord blood CD34+ cells; puromycin alone) | mean VCN in hCD45+ cells isolated from mice versus absence of treatment [2] | absolute numbers of vector-bearing erythroid progenitors (BFU-Es), presence versus absence of treatment [3] | absolute numbers of transduced progenitors, presence versus absence of puromycin ([4]; LTGCPU1-transduced, optimized protocol) | proportion of vector-bearing progenitors (myeloid and erythroid) ([4]; LTGCPU1-transduced, 5 μg/mL puromycin for 24 hours, 48 hours after transduction) | mean VCN per cell, pooled cells ([4]; LTGCPU1-transduced, puromycin 10 μg/mL, selected 24 hours after transduction) | mean VCN per cell, pooled cells ([4]; LTGCPU1-transduced, puromycin treatment began two or three days after transduction) | percentage of transduced progenitor cells in vitro ([4]; mPB cells, after selection with puromycin (data not shown)) [%] | mean VCN in puromycin-treated cells ([4]; mPB cells, in vitro) |
| --- | --- | --- | --- | --- | --- | --- | --- | --- | --- | --- | --- | --- | --- | --- | --- |
| Nc1nc(O)c2ncn(COC(CO)CO)c2n1 [ganciclovir] | one of the eight mice | sensitive | limited | 1000 |  |  |  |  |  |  |  |  |  |  |  |
| COc1ccc(C[C@H](N)C(=O)N[C@H]2[C@@H](O)[C@H](n3cnc4c(N(C)C)ncnc43)O[C@@H]2CO)cc1 [puromycin] |  |  |  |  | efficiently selected | ≈ 0.5 | higher | similar | similar | similar | more than 90% | 1.6 | ~1.08 | 100 | greater than 1 |
